Results published in ChEMBL document CHEMBL3351906, “Bioactive triterpenoid saponins and phenolic compounds against glioma cells” (Bioorg Med Chem Lett, 2014).

What was measured:
U-251 [1] = assay: Inhibition of cell proliferation of human U251 cells assessed as cell viability at 100 uM after 72 hrs by sulforhodamine B assay; type: functional; conditions: U-251, 72 h, read-out: Activity
U-251 [2] = assay: Inhibition of cell proliferation of human U251 cells assessed as cell viability after 72 hrs by sulforhodamine B assay; type: functional, cell-based; conditions: U-251, 72 h
C6 [3] = assay: Inhibition of cell proliferation of rat C6 cells assessed as cell viability after 72 hrs by sulforhodamine B assay; type: functional, cell-based; conditions: C6, 72 h
C6 [4] = assay: Inhibition of cell proliferation of rat C6 cells assessed as cell viability at 100 uM after 72 hrs by sulforhodamine B assay; type: functional; conditions: C6, 72 h, read-out: Activity

Row | IC50 (U-251 [2]) | Structure (SMILES) | viability at 100 µM (U-251 [1]) | IC50 (C6 [3]) | viability at 100 µM (C6 [4])
1 | 68.9 µM | C/C=C(/C)C(=O)O[C@H]1[C@H](O)[C@]2(COC(C)=O)[C@H](O)C[C@]3(C)C(=CC[C@@H]4[C@@]5(C)CC[C@H](O[C@@H]6O[C@H](C(=O)O)[C@@H](O[C@@H]7O[C@H](CO)[C@@H](O)[C@H](O)[C@H]7O)[C@H](O)[C@H]6O[C@@H]6O[C@H](CO)[C@@H](O)[C@H](O)[C@H]6O)[C@](C)(CO)[C@@H]5CC[C@]43C)[C@@H]2CC1(C)C [ISOESCIN IB] | 29.7% | 77.8 µM | –
2 | 80.4 µM | C/C=C(\C)C(=O)O[C@H]1[C@H](O)[C@]2(COC(C)=O)[C@H](O)C[C@]3(C)C(=CC[C@@H]4[C@@]5(C)CC[C@H](O[C@@H]6O[C@H](C(=O)O)[C@@H](O[C@@H]7O[C@H](CO)[C@@H](O)[C@H](O)[C@H]7O)[C@H](O)[C@H]6O[C@@H]6O[C@H](CO)[C@@H](O)[C@H](O)[C@H]6O)[C@](C)(CO)[C@@H]5CC[C@]43C)[C@@H]2CC1(C)C [ISOESCIN IA] | 61.1% | 54.5 µM | –
3 | 24.3 µM | O=C(CCc1ccc(O)c(O)c1)OCCc1ccc(O)c(O)c1 | 55% | 6.16 µM | –
4 | 15.2 µM | C=CC(C)(O)CC/C=C(\CO)C(=O)O[C@H]1[C@H](O)[C@@H](COC(=O)/C(C)=C/CC[C@](C)(O)C=C)O[C@@H](OC(=O)[C@]23CCC(C)(C)C[C@H]2C2=CC[C@@H]4[C@@]5(C)CC[C@H](O[C@@H]6O[C@H](CO[C@@H]7OC[C@H](O)[C@H](O)[C@H]7O[C@@H]7OC[C@@H](O)[C@H](O)[C@H]7O)[C@@H](O)[C@H](O)[C@H]6O)C(C)(C)[C@@H]5CC[C@@]4(C)[C@]2(C)CC3)[C@@H]1O[C@@H]1O[C@@H](C)[C@H](O[C@@H]2OC[C@@H](O)[C@H](O[C@@H]3OC[C@@H](O)[C@H](O)[C@H]3O)[C@H]2O)[C@@H](O)[C@H]1O (stereo partly drawn) | 9.84% | 13.6 µM | –
5 | 48.4 µM | C/C=C(\C)C(=O)O[C@H]1[C@H](O)[C@]2(COC(C)=O)[C@H](O)C[C@]3(C)C(=CC[C@@H]4[C@@]5(C)CC[C@H](O[C@@H]6O[C@H](C(=O)OC)[C@@H](O[C@@H]7O[C@H](CO)[C@@H](O)[C@H](O)[C@H]7O)[C@H](O)[C@H]6O[C@@H]6O[C@H](CO)[C@@H](O)[C@H](O)[C@H]6O)[C@](C)(CO)[C@@H]5CC[C@]43C)[C@@H]2CC1(C)C | 26.2% | 60.7 µM | –
6 | 37.2 µM | CC(=O)Oc1ccc(CCOC(=O)CCc2ccc(OC(C)=O)c(OC(C)=O)c2)cc1OC(C)=O | 43.5% | 12.8 µM | –
7 | 19.2 µM | C=C[C@@](C)(O)CC/C=C(\CO)C(=O)OC[C@H]1O[C@@H](OC(=O)[C@]23CCC(C)(C)C[C@H]2C2=CC[C@@H]4[C@@]5(C)CC[C@H](O[C@@H]6O[C@H](CO[C@@H]7OC[C@H](O)[C@H](O)[C@H]7O[C@@H]7OC[C@@H](O)[C@H](O)[C@H]7O)[C@@H](O)[C@H](O)[C@H]6O)C(C)(C)[C@@H]5CC[C@@]4(C)[C@]2(C)C[C@H]3O)[C@H](O[C@@H]2O[C@@H](C)[C@H](O[C@@H]3OC[C@@H](O)[C@H](O[C@@H]4OC[C@@H](O)[C@H](O)[C@H]4O)[C@H]3O)[C@@H](O)[C@H]2O[C@@H]2O[C@H](CO)[C@H](O)[C@H](O)[C@H]2O)[C@@H](O)[C@@H]1O | 28.6% | 18.1 µM | –

Second part, the compound before the results:

Row | Structure (SMILES) | IC50 (U-251 [2]) | viability at 100 µM (U-251 [1]) | IC50 (C6 [3]) | viability at 100 µM (C6 [4])
8 | CC(=O)Oc1cc(CCOC(=O)CCc2ccc(O)c(OC(C)=O)c2)ccc1O | 26.8 µM | 39.8% | 8.47 µM | –
9 | CC(C)=CCC[C@@H](C)[C@H]1CC[C@]2(C)[C@@H]1[C@H](O)C[C@@H]1[C@@]3(C)CC[C@H](O)C(C)(C)[C@@H]3[C@@H](O)C[C@]12C | 117 µM | 49.4% | 49.7 µM | –
10 | C=CC(C)(O)CC/C=C(\CO)C(=O)O[C@H]1[C@H](OC[C@H]2O[C@@H](OC(=O)[C@]34CCC(C)(C)C[C@H]3C3=CC[C@@H]5[C@@]6(C)CC[C@H](O[C@@H]7O[C@H](CO[C@@H]8OC[C@H](O)[C@H](O)[C@H]8O[C@@H]8OC[C@@H](O)[C@H](O)[C@H]8O)[C@@H](O)[C@H](O)[C@H]7O)C(C)(C)[C@@H]6CC[C@@]5(C)[C@]3(C)C[C@H]4O)[C@H](O[C@@H]3O[C@@H](C)[C@H](O[C@@H]4OC[C@@H](O)[C@H](O[C@@H]5OC[C@@H](O)[C@H](O)[C@H]5O)[C@H]4O)[C@@H](O)[C@H]3O)[C@@H](O)[C@@H]2O)O[C@@H](C)[C@H](O)[C@H]1OC(=O)/C(C)=C/CC[C@@](C)(O)C=C (stereo partly drawn) | 43.1 µM | 29.2% | 30.3 µM | –
11 | C=CC(C)(O)CC/C=C(\CO)C(=O)OC[C@H]1O[C@@H](OC(=O)[C@]23CCC(C)(C)C[C@H]2C2=CC[C@@H]4[C@@]5(C)CC[C@H](O[C@@H]6O[C@H](CO[C@@H]7OC[C@H](O)[C@H](O)[C@H]7O[C@@H]7OC[C@@H](O)[C@H](O)[C@H]7O)[C@@H](O)[C@H](O)[C@H]6O)C(C)(C)[C@@H]5CC[C@@]4(C)[C@]2(C)CC3)[C@H](O[C@@H]2O[C@@H](C)[C@H](O[C@@H]3OC[C@@H](O)[C@H](O[C@@H]4OC[C@@H](O)[C@H](O)[C@H]4O)[C@H]3O)[C@@H](O)[C@H]2O)[C@@H](O)[C@@H]1O (stereo partly drawn) | 44.5 µM | 32.9% | 31.7 µM | –
12 | O=c1c(O)c(-c2ccc(O)c(O)c2)oc2cc(O)cc(O)c12 [QUERCETIN] | 77.8 µM | 62.9% | 18.4 µM | –
13 | C/C=C/C(=O)OC[C@H]1O[C@@H](O[C@H]2[C@H](O[C@H]3CC[C@]4(C)[C@H]5C[C@@H](O)[C@@H]6[C@@H]([C@](C)(CCC=C(C)C)O[C@@H]7O[C@H](CO[C@@H]8O[C@H](CO)[C@@H](O)[C@H](O)[C@H]8O)[C@@H](O)[C@H](O)[C@H]7O)CC[C@@]6(C)[C@]5(C)CC[C@H]4C3(C)C)O[C@H](CO)[C@@H](O)[C@@H]2O)[C@H](O)[C@@H](O)[C@@H]1O | – | 97.2% | – | 99.4%
14 | C=C[C@@](C)(O)CC/C=C(\C)C(=O)O[C@H]1[C@H](OC[C@H]2O[C@@H](OC(=O)[C@]34CCC(C)(C)C[C@@H]3C3=CC[C@@H]5[C@@]6(C)CC[C@H](O[C@@H]7O[C@H](CO[C@@H]8OC[C@H](O)[C@H](O)[C@H]8O[C@@H]8OC[C@@H](O)[C@H](O)[C@H]8O)[C@@H](O)[C@H](O)[C@H]7O)C(C)(C)[C@@H]6CC[C@@]5(C)[C@]3(C)C[C@H]4O)[C@H](O[C@@H]3O[C@@H](C)[C@H](O[C@@H]4OC[C@@H](O)[C@H](O[C@@H]5OC[C@@H](O)[C@H](O)[C@H]5O)[C@H]4O)[C@@H](O)[C@H]3O)[C@@H](O)[C@@H]2O)O[C@@H](C)[C@H](O)[C@H]1OC(=O)/C(=C/CC[C@](C)(O)C=C)CO [GLEDITSIA SAPONIN C] | 46.8 µM | 34.9% | 17.6 µM | –
15 | CC(C)=CCC[C@@](C)(O)[C@H]1CC[C@]2(C)[C@@H]1[C@H](O)C[C@@H]1[C@@]3(C)CC[C@H](O)C(C)(C)[C@@H]3[C@@H](O[C@@H]3O[C@H](CO)[C@@H](O)[C@H](O)[C@H]3O[C@@H]3O[C@@H](C)[C@H](O)[C@@H](O)[C@H]3O)C[C@]12C | – | 99% | – | 95.5%
